Patent US7589096B2, “Azole derivatives” (Banyu Pharmaceutical Co., Ltd., priority 2002, dated 2009)
Structures can show the parent of a compound that is named as a salt. Where two headings read alike, the source gives them in different places.

Experiments:
human NPY Y5 receptor = target: T1, human NPY Y5 receptor (Homo sapiens, UniProt Q15761); experiment: NPY binding inhibition test ([125I]peptide YY binding to membranes of NPY Y5 receptor expression cells); conditions: [125I]peptideYY, membrane sample, 25° C., 2 hours; read-out: IC50 against specific peptide YY binding
T1 construct: expressed in transfected cells; host or cells: COS-7, CHO and LM(tk-)
T1 sequence (Q15761 1-445): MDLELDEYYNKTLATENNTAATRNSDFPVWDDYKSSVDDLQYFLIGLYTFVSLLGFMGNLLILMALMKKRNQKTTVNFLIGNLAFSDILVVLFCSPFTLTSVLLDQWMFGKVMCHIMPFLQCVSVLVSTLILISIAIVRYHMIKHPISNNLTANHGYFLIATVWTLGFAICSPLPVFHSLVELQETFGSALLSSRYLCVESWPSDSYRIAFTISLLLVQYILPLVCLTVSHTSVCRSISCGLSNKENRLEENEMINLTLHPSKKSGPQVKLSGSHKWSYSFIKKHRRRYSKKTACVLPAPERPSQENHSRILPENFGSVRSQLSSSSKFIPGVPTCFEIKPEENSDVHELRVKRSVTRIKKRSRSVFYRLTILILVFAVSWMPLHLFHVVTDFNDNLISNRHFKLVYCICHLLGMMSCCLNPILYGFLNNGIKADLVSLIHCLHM
Description: cDNA sequence encoding human NPY Y5 receptor (cf. International patent publication number WO96/16542) was cloned into expression vectors pcDNA3, pRc/RSV (made by invitrogen Inc.) and pCI-neo (made by Promega Inc.). The expression vectors thus obtained were transfected to host cells COS-7, CHO and LM(tk-) (American Type Culture Collection) by cationic lipid method (Proceedings of the National Academy of Sciences of the United States of America, 84: 7413 (1987)) to give NPY Y5 receptor expression cells.
A membrane sample prepared from the cells which expressed NPY Y5 receptor was incubated together with a test compound and [^125I]peptideYY (made by NEN) (20,000 cpm) in man assay buffer (25 mM Tris buffer, pH 7.4, containing 10 mM magnesium chloride, 1 mM phenylmethylsulfonyl fluoride, 0.1% bacitracin and 0.5% bovine serum albumin) at 25° C. for 2 hours, then filtered through a glass filter GF/C and washed with 5 mM Tris buffer (pH7.4) containing 0.3% BSA. The radioactivity of the cake on the glass filter was measured. Non-specific binding was measured in the presence of 1 μM peptide YY, and a 50% Inhibitory Concentration (IC50) of the test compound against specific peptide YY binding was determined (Endocrinology; 131: 2090 (1992)).

[1] = Brain/cerebrospinal fluid transport test; type: in vivo; conditions: male SD rats, 2 hours after oral administration (10 mg/kg); for concentration at 2 h: rat
Method: A test compound was orally or intravenously administered to male SD rats (7-10 weeks old, 200-400 g), and whole blood was collected from the abdominal aorta of said rats anesthetized with ether at predetermined time, using a heparin-treated syringe. Then, the head skin was cut open, and a dental 30 G needle was inserted between the cervical vertebrae, and it was further inserted into the cavum subarachnoideale. After 50 to 100 μL cerebrospinal fluid had been collected by a 1 ml-syringe through a tube connected to said dental 30 G needle, the brain was extracted. The blood sample was centrifuged (4° C., 6,000 r.p.m., 10 minutes) to collect the plasma, to which was added 3-fold amount of ethanol containing an internal standard, and the mixture was stirred. The brain sample was homogenized after addition of 2 ml water, an aliquot of the homogenate was taken and 3-fold amount of ethanol containing an internal standard was added thereto and stirred. The cerebrospinal fluid was stirred after adding 3-fold amount of ethanol containing an internal standard. The samples thus obtained were allowed to stand at −20° C. for 20 minutes, and then centrifuged (4° C., 12,000 g, 10 minutes). The supernatant was analyzed by LC/MS/MS, and the concentration of the test compound in the plasma, brain, and cerebrospinal fluid were measured by the method using a relative calibration curve.

Compound | IC50 (human NPY Y5 receptor) | also measured
O=C1OC2(CCN(c3nc(-c4ccc5ccccc5c4)n[nH]3)CC2)c2ccccc21 [Example 30, 3-(2-naphthyl)-5-[3-oxospiro[isobenzofuran-1-(3H),4′-piperidin]-1′-yl]-1H-1,2,4-triazole] | 4.2 nM | 
O=C1OC2(CCC(c3nn4nc(-c5ccccc5)cc4[nH]3)CC2)c2ccccc21 (stereo not drawn) [Example 36, trans-2-[3′-oxospiro[cyclohexane-1,1′(3′H)-isobenzofuran]-4-yl]-6-phenyl-1H-pyrazolo[2,3-b][1,2,4]triazole] | 1.8 nM | 
O=C1OC2(CCC(c3cc(-c4ccnc(-c5ccccc5)n4)[nH]n3)CC2)c2ccccc21 (stereo not drawn) [Example 23, trans-3-[3′-oxospiro[cyclohexane-1,1′(3′H)-isobenzofuran]-4-yl]-5-(2-phenylpyrimidin-4-yl)-1H-pyrazole] | 2.7 nM | 
O=C1OC2(CCN(c3cc(-c4ccnc(-c5ccc(F)cc5)n4)[nH]n3)CC2)c2cnccc21 [Example 47, 3-[3-oxospiro[6-azaisobenzofuran-1(3H),4′-piperidin]-1′-yl]-5-[2-(4-fluorophenyl)pyrimidin-4-yl]-1H-pyrazole] | 2.2 nM | 
O=C1OC2(CCN(c3cc(-c4ccnc(-c5ccccc5)n4)[nH]n3)CC2)c2cnccc21 [Example 45, 3-[3-oxospiro[6-azaisobenzofuran-1(3H),4′-piperidin]-1′-yl]-5-(2-phenylpyrimidin-4-yl)-1H-pyrazole] | 1.5 nM | 
O=C1OC2(CCC(c3cc(-c4ccnc(-c5ccccc5)n4)[nH]n3)CC2)c2cnccc21 (stereo not drawn) [Example 29, trans-3-[3-oxospiro[6-azaisobenzofuran-1(3H),1′-cyclohexan]-4′-yl]-5-(2-phenylpyrimidin-4-yl)-1H-pyrazole] | 3.9 nM | concentration in the brain [1]: 3.01 nmol/g; concentration at 2 h ([1]; cerebrospinal fluid, read-out: concentration in the cerebrospinal fluid): 0.015 µM; concentration at 2 h ([1]; plasma, read-out: concentration in the plasma): 1.16 µM
O=C1OC2(CCN(c3cc(-c4ccnc(-c5ccccc5)n4)[nH]n3)CC2)c2ccccc21 [Example 19, 3-[3-oxospiro[isobenzofuran-1(3H),4′-piperidin]-1′-yl]-5-(2-phenylpyrimidin-4-yl)-1H-pyrazole] | 1.6 nM | 
O=C1OC2(CCN(c3nc(-c4ccc5ccccc5c4)c[nH]3)CC2)c2ccccc21 [Example 1, 4-(2-naphthyl)-2-[3-oxospiro[isobenzofuran-1(3H),4′-piperidin]-1′-yl]-1H-imidazole hydrochloride] | 1.7 nM | 
O=C1OC2(CCN(c3cc(-c4ccnc(-c5ccccc5F)n4)[nH]n3)CC2)c2cnccc21 [Example 46, 3-[3-oxospiro[6-azaisobenzofuran-1(3H),4′-piperidin]-1′-yl]-5-[2-(2-fluorophenyl)pyrimidin-4-yl]-1H-pyrazole] | 1.5 nM | 
O=C1OC2(CCN(c3cc(-c4ccnc(-c5ccccc5)c4)[nH]n3)CC2)c2ccccc21 [Example 14, 3-[3-oxospiro[isobenzofuran-1(3H),4′-piperidin]-1′-yl]-5-(2-phenylpyridin-4-yl)-1H-pyrazole] | 1.7 nM | 
O=C1OC2(CCC(c3nn4nc(-c5ccccc5)cc4[nH]3)CC2)c2cnccc21 (stereo not drawn) [Example 35, trans-2-[3-oxospiro[6-azaisobenzofuran-1(3H),1′-cyclohexan]-4′-yl]-6-phenyl-1H-pyrazolo[2,3-b][1,2,4]triazole] | 3.3 nM | 
O=C1OC2(CCC(c3nn4nc(-c5ccccc5F)cc4[nH]3)CC2)c2cnccc21 (stereo not drawn) [Example 34, trans-6-(2-fluorophenyl)-2-[3-oxospiro[6-azaisobenzofuran-1(3H),1′-cyclohexan]-4′-yl]-1H-pyrazolo[2,3-b][1,2,4]-triazole] | 3.5 nM | 
O=C1OC2(CCC(c3cc(-c4cncc(-c5ccccc5)n4)[nH]n3)CC2)c2ccccc21 (stereo not drawn) [Example 24, trans-3-[3′-oxospiro[cyclohexane-1,1′(3′H)-isobenzofuran]-4-yl]-5-(6-phenylpyrazin-2-yl)-1H-pyrazole] | 3.9 nM | 
